The record followed here is publication PMC6812009, “Covalent Aurora A regulation by the metabolic integrator coenzyme A” (Redox Biology, 2019).

Holding throughout (assay): Kinase profiling screen (radioactive filter-binding assay)
Common to all, as to format: biochemical

One assay has as its target T1, ZAP70 (Homo sapiens, UniProt P43403).
T1 sequence (P43403 1-619): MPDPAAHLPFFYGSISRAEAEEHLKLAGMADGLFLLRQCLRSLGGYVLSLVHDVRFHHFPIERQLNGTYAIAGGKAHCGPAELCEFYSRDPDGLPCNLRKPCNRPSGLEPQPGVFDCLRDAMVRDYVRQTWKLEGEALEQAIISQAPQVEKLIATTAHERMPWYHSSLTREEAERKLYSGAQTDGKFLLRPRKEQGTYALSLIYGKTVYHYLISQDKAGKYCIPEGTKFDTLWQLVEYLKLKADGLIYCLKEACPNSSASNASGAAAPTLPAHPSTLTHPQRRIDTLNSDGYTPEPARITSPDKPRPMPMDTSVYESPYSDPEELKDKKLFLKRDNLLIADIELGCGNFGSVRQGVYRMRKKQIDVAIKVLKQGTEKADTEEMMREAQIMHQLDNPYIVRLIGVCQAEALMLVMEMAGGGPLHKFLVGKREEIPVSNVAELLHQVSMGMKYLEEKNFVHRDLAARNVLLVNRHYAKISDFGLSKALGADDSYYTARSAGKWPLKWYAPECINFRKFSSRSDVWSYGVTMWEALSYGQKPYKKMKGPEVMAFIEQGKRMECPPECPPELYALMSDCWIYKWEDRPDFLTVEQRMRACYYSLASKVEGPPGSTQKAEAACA
Particulars: 100 μM compound, 5 μM ATP; read-out: Kinase activity, % of activity in the absence of inhibitor. The procedure:
(§1) Profiling of 117 protein kinases with CoA, dpCoA and ADP was carried out at the International Centre for Protein Kinase Profiling at the University of Dundee. Each compound was tested in vitro, in duplicate, at 100 μM final concentration using recombinant kinases, model substrates and optimal concentrations of ATP. Bacterially expressed full-length His-Aurora A was used to determine the IC50 value for CoA (in the presence or absence of DTT), dpCoA, ADP and desulfo-CoA. The assay was performed in the presence of 5 μM competing ATP. To examine whether the inhibitory effect of CoA on Aurora A is modulated by TPX2, IC50 values for CoA were also generated in the presence and absence of 1 μg TPX2 (residues 1–43) fragment.

For the next assay, the target named is T2, NEK2α (Homo sapiens, UniProt P51955).
T2 sequence (P51955 1-445): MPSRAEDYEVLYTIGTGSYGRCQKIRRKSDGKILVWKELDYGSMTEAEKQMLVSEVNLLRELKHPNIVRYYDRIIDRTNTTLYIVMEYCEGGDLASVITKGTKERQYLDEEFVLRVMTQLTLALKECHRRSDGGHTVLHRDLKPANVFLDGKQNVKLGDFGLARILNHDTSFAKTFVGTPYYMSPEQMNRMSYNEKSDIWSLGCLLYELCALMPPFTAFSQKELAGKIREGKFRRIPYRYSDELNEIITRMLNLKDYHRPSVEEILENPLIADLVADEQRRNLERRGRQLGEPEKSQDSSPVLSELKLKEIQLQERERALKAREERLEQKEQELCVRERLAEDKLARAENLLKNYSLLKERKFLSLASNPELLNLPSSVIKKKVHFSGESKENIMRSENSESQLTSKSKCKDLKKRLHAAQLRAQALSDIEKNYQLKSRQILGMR
Particulars: 100 μM compound, 50 μM ATP; read-out: Kinase activity, % of activity in the absence of inhibitor. The procedure:
as §1

The next assay concerns the target T3, TBK1 (Homo sapiens, UniProt Q9UHD2).
T3 sequence (Q9UHD2 1-729): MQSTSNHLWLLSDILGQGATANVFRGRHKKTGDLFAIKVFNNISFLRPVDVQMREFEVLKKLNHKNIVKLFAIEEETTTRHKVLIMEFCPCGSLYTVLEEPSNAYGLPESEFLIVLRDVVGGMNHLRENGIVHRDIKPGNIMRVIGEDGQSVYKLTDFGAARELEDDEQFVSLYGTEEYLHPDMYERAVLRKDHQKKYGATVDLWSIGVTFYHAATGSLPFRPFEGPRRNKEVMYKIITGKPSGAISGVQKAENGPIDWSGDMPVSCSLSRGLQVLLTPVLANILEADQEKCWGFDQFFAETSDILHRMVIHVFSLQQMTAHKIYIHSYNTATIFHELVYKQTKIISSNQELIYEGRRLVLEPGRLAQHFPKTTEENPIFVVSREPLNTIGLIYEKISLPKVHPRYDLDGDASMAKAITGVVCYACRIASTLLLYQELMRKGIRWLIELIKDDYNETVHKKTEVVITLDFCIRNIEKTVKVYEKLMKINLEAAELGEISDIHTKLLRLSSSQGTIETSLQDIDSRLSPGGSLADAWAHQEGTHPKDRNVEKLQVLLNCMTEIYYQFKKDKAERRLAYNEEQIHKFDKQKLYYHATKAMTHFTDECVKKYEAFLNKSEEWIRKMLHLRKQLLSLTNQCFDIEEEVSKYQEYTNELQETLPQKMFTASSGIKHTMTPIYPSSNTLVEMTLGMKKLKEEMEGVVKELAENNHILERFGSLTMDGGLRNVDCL
Conditions: 100 μM compound, 50 μM ATP; read-out: Kinase activity, % of activity in the absence of inhibitor. The protocol: as §1

The target in another assay is CK2α (Homo sapiens, UniProt P68400). Conditions: 100 μM compound, 5 μM ATP; read-out: Kinase activity, % of activity in the absence of inhibitor. The procedure: as §1
The target of another assay is DYRK1A (Homo sapiens, UniProt Q13627). Particulars: 100 μM compound, 50 μM ATP; read-out: Kinase activity, % of activity in the absence of inhibitor. The protocol:
as §1

A further assay concerns the target MKK2 (Homo sapiens, UniProt P36507). Conditions: 100 μM compound, 5 μM ATP; read-out: Kinase activity, % of activity in the absence of inhibitor. The protocol: as §1

Chain of CK2α (P68400 whole entry): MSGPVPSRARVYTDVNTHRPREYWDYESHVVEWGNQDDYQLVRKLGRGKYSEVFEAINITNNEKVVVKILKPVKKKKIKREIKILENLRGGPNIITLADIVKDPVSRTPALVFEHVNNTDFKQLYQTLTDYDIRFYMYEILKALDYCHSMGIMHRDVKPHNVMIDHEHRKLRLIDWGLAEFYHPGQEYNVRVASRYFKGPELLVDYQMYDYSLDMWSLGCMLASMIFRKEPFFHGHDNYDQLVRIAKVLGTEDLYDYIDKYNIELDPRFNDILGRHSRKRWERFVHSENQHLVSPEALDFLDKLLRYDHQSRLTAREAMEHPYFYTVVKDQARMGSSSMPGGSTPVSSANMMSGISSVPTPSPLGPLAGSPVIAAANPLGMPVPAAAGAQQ
Chain of MKK2 (P36507 whole entry): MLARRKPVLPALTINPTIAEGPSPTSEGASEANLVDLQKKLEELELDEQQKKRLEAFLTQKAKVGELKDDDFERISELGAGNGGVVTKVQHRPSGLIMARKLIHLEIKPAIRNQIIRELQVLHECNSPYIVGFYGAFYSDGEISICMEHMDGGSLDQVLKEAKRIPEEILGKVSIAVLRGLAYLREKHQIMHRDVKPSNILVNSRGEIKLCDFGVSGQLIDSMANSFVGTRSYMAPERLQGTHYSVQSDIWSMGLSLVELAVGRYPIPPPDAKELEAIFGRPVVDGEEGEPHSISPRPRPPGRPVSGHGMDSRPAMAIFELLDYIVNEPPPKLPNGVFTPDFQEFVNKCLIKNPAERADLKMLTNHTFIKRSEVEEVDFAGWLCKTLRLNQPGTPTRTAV

With `CC(C)(COP(=O)(O)OP(=O)(O)OCC1OC(n2cnc3c(N)ncnc32)C(O)C1O)C(O)C(=O)NCCC(=O)NCCS` (stereo not drawn) [dpCoA, dephospho-CoA], the activity at 100 µM at ZAP70 is 79.8%; at NEK2α, 100%; at TBK1, 110%; at CK2α, 39.8%; at DYRK1A it was 90.2%; at MKK2, 53%.
In the case of `CC(C)(COP(=O)(O)OP(=O)(O)OC[C@H]1O[C@@H](n2cnc3c(N)ncnc32)[C@H](O)[C@@H]1OP(=O)(O)O)[C@@H](O)C(=O)NCCC(=O)NCCS` [CoA, Coenzyme A], the activity at 100 µM turned out to be 89.7% at ZAP70; 148% at NEK2α; 106% on TBK1; 80.1% at CK2α; 93.1% at DYRK1A; 103% at MKK2.
With `Nc1ncnc2c1ncn2C1OC(COP(=O)(O)OP(=O)(O)O)C(O)C1O` (stereo not drawn) [ADP], the activity at 100 µM on ZAP70 came to 13.2%; at NEK2α, 42.1%; on TBK1 it was 95.1%; on CK2α, 5.4%; at DYRK1A, 75.9%; at MKK2 it was 35.4%.
